According to PubChem BioAssay AID2823 (Broad Institute, 2010):
pIC50: −log10 of the molar value. The source made the active and inactive calls. No rule for the calls is given here.

molecular target: RanGTP-importin-beta complex (human Ran / KPNB1); assay: Ran–importin-beta interaction inhibitors, confirmation, biochemical, FRET, CFP/YFP, cell-free homogeneous (AID 2823); conditions: CFP-Ran/YFP-importin-beta FRET ratio

SMILES	pIC50	IC50
Cc1c(Br)c(=O)oc2c(Br)c(O)c(O)cc12	4.58	–
Cc1cc2c(c(=O)n1Cc1cccnc1)C(Cc1ccccc1)C(C#N)=C(N)O2 (stereo not drawn)	–	> 50 µM (inactive)
CN(C)S(=O)(=O)c1ccc(N2CCCC2)c(C(=O)NC(c2ccccc2)c2ccccc2)c1	–	> 50 µM (inactive)
Cc1c(OC(=O)N(C)C)ccc2c1O/C(=C\c1ccco1)C2=O	4.90	–
CC(C)NC(=O)/C(C#N)=C/c1ccc(N(C)C)o1	5.22	–
CS(=O)(=O)N(CC(=O)NCCSCc1ccco1)c1ccc(Cl)cc1	–	> 50 µM (inactive)
CC(C)Cc1nnc(NC(=O)Cc2cccs2)s1	–	> 50 µM (inactive)
Cc1cc(C)c(S(=O)(=O)N(C)CC(N)=O)c(C)c1	–	> 50 µM (inactive)
O=C(O)C1CCCC2CN3CCc4c([nH]c5ccccc45)C3C(O)C21 (stereo not drawn)	–	> 50 µM (inactive)
CC(=O)N1CCc2c(sc(NC(=O)CCS(=O)(=O)c3ccc(C)cc3)c2C(N)=O)C1	4.51	–
CCN1CCN(Cc2c(O)c(Cl)cc3c(C)cc(=O)oc23)CC1	4.48	–
N#C/C(=C/c1cn(CC(=O)O)c2ccccc12)C(=O)NCc1ccccc1	–	> 50 µM (inactive)
CNc1cc(F)nc(F)n1	4.74	–
O=C(O)Cn1cc(/C=C2\SC(=O)N(c3ccccc3)C2=O)c2ccccc21	4.40	–
O=C(Nc1ccnc(-c2ccncc2)n1)c1ccc(Cl)cc1	–	> 50 µM (inactive)
O=c1cc(CN2CCN(Cc3ccccc3)CC2)c2ccc(O)cc2o1	4.95	–
Cc1cc(Cl)ccc1C(=O)C1CCCN(C(=O)c2n[nH]c3c2CCCC3)C1 (stereo not drawn)	–	> 50 µM (inactive)
CC(O)CNc1nc2ccccc2n1CC(=O)NC12CC3CC(CC(C3)C1)C2 (stereo not drawn)	–	> 50 µM (inactive)
COc1ccccc1S(=O)Cc1ccc(C(=O)O)o1 (stereo not drawn)	–	> 50 µM (inactive)
CC1(C)CC(=O)C/C(=N\NC(=O)C2CC23CCC3)C1 (stereo not drawn)	–	> 50 µM (inactive)
O=c1c2ccccc2sc2ccc(C#CC3(O)CCCCC3)cc12	4.64	–
Cc1ccc(C(=O)NCc2ccco2)cc1S(=O)(=O)N1CCOCC1	–	> 50 µM (inactive)
Cc1ccc(-c2cc3nc(-c4ccccc4)cc(N4CCC5(CC4)OCCO5)n3n2)cc1	4.36	–
Cc1c(C)c2cc(Cl)c(O)c(CN(C)C)c2oc1=O	4.60	–
CCCC1C(C#N)=C(N)Oc2cc(C)n(C)c(=O)c21 (stereo not drawn)	–	> 50 µM (inactive)
CCCCNC(=O)c1c(N)n(Cc2ccc3c(c2)OCO3)c2nc3ccccc3nc12	5.31	–

SMILES	pIC50	IC50
COC(=O)c1cccnc1NC(=S)NNC(=O)c1ccccc1	–	> 50 µM (inactive)
Cc1nn(-c2ccccc2)c2sc(C(=O)NC3CCCCC3)cc12	–	> 50 µM (inactive)
COc1ccc(N2C(=O)c3ccccc3NC2c2cccnc2)cc1 (stereo not drawn)	–	> 50 µM (inactive)
COc1ccc2c(C)c(C(=O)N3CC[C@@H](N4CCC(O)CC4)[C@H](O)C3)oc2c1	–	> 50 µM (inactive)
Cc1cccn2c(=O)c(/C=C(\C#N)C(=O)NC3CCS(=O)(=O)C3)c(Oc3ccc(F)cc3)nc12 (stereo not drawn)	4.81	–
CCN1CCc2c(sc(NC(=O)c3ccc(S(=O)(=O)N4CC(C)OC(C)C4)cc3)c2C(N)=O)C1 (stereo not drawn)	–	> 50 µM (inactive)
COc1cc(CN2CCN(Cc3c[nH]c4ccccc34)CC2CCO)cc(OC)c1 (stereo not drawn)	–	> 50 µM (inactive)
CCc1ccc(CNc2ccc3c(c2)ncn3C(C)(C)C)cc1	–	> 50 µM (inactive)
CN(C)CCCn1c(N)c(C#N)c2nc(C#N)c(C#N)nc21	4.66	–
O=c1[nH]c2c(s1)C(c1ccco1)C1C3CCC(C3)C1S2 (stereo not drawn)	–	> 50 µM (inactive)
CCC(CC)COC(=O)C1=C(C)NC(=O)NC1c1ccc(N(C)C)cc1 (stereo not drawn)	–	> 50 µM (inactive)
CC(=O)Nc1cccc(C(=O)N/N=C/c2ccc(F)cc2)c1	–	> 50 µM (inactive)
COc1ccc(NC(=O)CN2C(=O)CC(C)S(=O)(=O)c3ccccc32)cc1 (stereo not drawn)	–	> 50 µM (inactive)
Cn1c(=O)c2c(ncn2CCOc2ccc(F)cc2)n(C)c1=O	–	> 50 µM (inactive)
COc1cc(/C=C(\C#N)C(=O)Nc2cccc3ncccc23)cc(OC)c1OC	–	> 50 µM (inactive)
O=C(c1ccco1)c1cc2c(ccc3ccccc32)oc1=O	4.60	–
COc1ccc(N2C(=O)CC(C#N)=C2N)cc1	–	> 50 µM (inactive)
CC(C)Cc1ccc(CN2CCC(n3nccc3NC(=O)C3CCCC3)CC2)cc1	–	> 50 µM (inactive)
COc1ccc(OC)c(S(=O)(=O)n2ccnc2C)c1	–	> 50 µM (inactive)
O=C1NC(=S)S/C1=C1\Sc2ccccc2N1CCCS(=O)(=O)O	4.90	–
Cc1cc(Nc2ccccc2)nn1C(=O)c1ccccc1	–	> 50 µM (inactive)
O=C1CC(/C=C/c2ccco2)=Nc2ccccc2N1	–	> 50 µM (inactive)
O=C(Nc1ccc(OC(F)(F)F)cc1)c1ccc2nc[nH]c2c1	–	> 50 µM (inactive)
CCc1nc(N)c(C#N)c(-c2ccc(F)cc2)c1C	–	> 50 µM (inactive)
C/C(=N\N)c1c(-c2ccccc2)c2cc(Br)ccc2[nH]c1=O	–	> 50 µM (inactive)
CC(C)(C)Nc1c2ccccc2nc2ccccc12	–	> 50 µM (inactive)

SMILES	pIC50	IC50
Cc1nc2[nH]c(=O)c3c(n2n1)NC1=C(C(=O)CC(C)(C)C1)C3c1ccccc1 (stereo not drawn)	5.47	–
CC1(C)CC(=O)C=C(Nc2ccccc2F)C1	–	> 50 µM (inactive)
CCN1CCc2nc(NC(=O)c3cc(F)c(F)cc3Cl)sc2C1	–	> 50 µM (inactive)
CC/C(=N\NC(=O)c1cc(C2CC2)[nH]n1)c1ccccc1	–	> 50 µM (inactive)
COc1ccc(CCNC(=O)c2cc3c(=O)n4cccc(C)c4nc3n(CCCN3CCOCC3)c2=N)cc1	5.31	–
COC(=O)c1ccc2c(=O)n(CCN3CCOCC3)c(SCC(=O)C(C)(C)C)nc2c1	–	> 50 µM (inactive)
COc1ccc(N=Cc2cc(Cc3ccccc3Cl)cc([N+](=O)[O-])c2O)cc1OC	–	> 50 µM (inactive)
Cc1nnc(Sc2nc3c(c(=O)n(C)c(=O)n3C)n2Cc2ccccc2Cl)s1	–	> 50 µM (inactive)
CCCc1noc(-c2cccc([N+](=O)[O-])c2)n1	–	> 50 µM (inactive)
CC(C)CCNC(=O)C(c1ccco1)N(Cc1ccccc1)C(=O)c1snc(C(N)=O)c1N (stereo not drawn)	–	> 50 µM (inactive)
Cc1cccc(-n2c(O)c(/C=C/C=Nc3ccccc3)c(=O)[nH]c2=O)c1	5.44	–
O=C(NNc1c2ccccc2nc2ccccc12)c1cc2ccccc2cc1O	–	> 50 µM (inactive)
Cc1cc(C)c2c(N)c(C(=O)NN3CC(=O)N(c4ccccc4F)CC3=O)sc2n1	–	> 50 µM (inactive)
Cc1sc(NC(=O)c2ccccc2)c(C#N)c1-c1ccccc1	–	> 50 µM (inactive)
CCOC(=O)C(=O)Nc1cc(C(=O)OC)cc(C(=O)OC)c1	–	> 50 µM (inactive)
COc1ccc(CNC(=O)C2CC(=O)N(C3CCCCC3)C2)cc1 (stereo not drawn)	–	> 50 µM (inactive)
N#Cc1ccc(/C=C(\C(=O)C(=O)O)c2ccc3ccccc3n2)cc1	4.92	–
COc1cc2cc(C(N)=O)c(N)nc2cc1OC	4.99	–
COc1ccc(CCn2c(=N)c(C(=O)NCC3CCCO3)cc3c(=O)n4cccc(C)c4nc32)cc1 (stereo not drawn)	4.94	–
N#C/C(=C\c1ccc(N2CCOCC2)o1)C(=O)N1CCOCC1	5.33	–
CCC(=O)Nc1cccc(NC(=S)NC(=O)c2cccs2)c1	–	> 50 µM (inactive)
Cc1ccc2cc(C#N)c(N3CCCN(C(=S)NCCCN(C)C)CC3)nc2c1	4.65	–
CCN1CCN(Cc2ccc(NC(=O)c3ccc(C)c(/C=C/c4cnc(Nc5cc(N6CCNCC6)nc(C)n5)cn4)c3)cc2C(F)(F)F)CC1	4.71	–
Cc1c(C#N)c(NC(=O)CCl)n(Cc2ccccc2)c1C	–	> 50 µM (inactive)
Cn1c(=O)cc(N2CCCCC2)[nH]c1=O	–	> 50 µM (inactive)
Cc1cc(C(=O)N/N=C2\CC(=O)CC(C)(C)C2)n[nH]1	–	> 50 µM (inactive)

SMILES	pIC50	IC50
O=C(CN1C(=O)NC2(CCCC2)C1=O)Nc1nc2c(F)cc(F)cc2s1	–	> 50 µM (inactive)
CC(=O)N1CCc2c(sc(NC(=O)CS(=O)(=O)c3ccc(F)cc3)c2C(N)=O)C1	–	> 50 µM (inactive)
COC(=O)c1cc(NC(=O)c2ccc([N+](=O)[O-])cc2)c(=O)oc1C	–	> 50 µM (inactive)
O=C(CN1CC(=O)Oc2ccccc21)NCc1ccco1	–	> 50 µM (inactive)
Cc1csc2ncnc(NC3CCN(Cc4ccccc4)CC3)c12	–	> 50 µM (inactive)
O=C(Nc1ccccc1-c1ccccc1)c1cccs1	–	> 50 µM (inactive)
CC1CCCCN1C(=O)Cn1c(=O)oc2cc(S(=O)(=O)N3CCCC3)ccc21 (stereo not drawn)	–	> 50 µM (inactive)
CSc1nc(-c2ccc(N(C)C)cc2)c(C#N)c(=O)n1C	–	> 50 µM (inactive)
COC(=O)Cc1c(C)c2ccc(O)c(CNCc3ccc(OC)c(OC)c3)c2oc1=O	5.21	–
CCc1c(C)c2cc(Cl)c(O)c(CN(CC)CC)c2oc1=O	4.66	–
CCOCCCNC(=O)/C(C#N)=C/c1cc(Br)c(O)c(Br)c1	4.90	–
NS(=O)(=O)c1ccc(N=Nc2c[nH]c(=O)c(O)c2)cc1	–	> 50 µM (inactive)
Cn1c(SCc2ccccc2F)nnc1-c1ccccn1	–	> 50 µM (inactive)
COc1ccc(-c2c(C)sc(NC(=O)c3ccnn3C)c2C#N)cc1	–	> 50 µM (inactive)
O=C1NC(c2cccc([N+](=O)[O-])c2)Oc2ccccc21 (stereo not drawn)	–	> 50 µM (inactive)
C=CCn1c(SCC(=O)N2CCCCC2)nnc1-c1ccncc1	–	> 50 µM (inactive)
CC(=O)Nc1cc(C(=O)N(C)Cc2ccco2)ccc1Sc1ccc(Cl)cc1	–	> 50 µM (inactive)
Nc1nc2nc(-c3ccc(OCc4ccccc4)cc3)cc(C(F)(F)F)n2n1	5.39	–
Cc1ccccc1Cn1nnc(-c2cccc(C(=O)O)c2)n1	–	> 50 µM (inactive)
O=[N+]([O-])c1ccc(Nc2c3ccccc3nc3ccccc23)cc1	–	> 50 µM (inactive)
COc1cc(OC)cc(-c2cc3nc(C)cc(N4CCN(C(=O)c5ccco5)CC4)n3n2)c1	5.31	–
CC(=O)c1cc(C#N)c(N2CC(C)OC(C)C2)nc1C (stereo not drawn)	–	> 50 µM (inactive)
O=C(CSc1nnc(-c2ccc(F)cc2)o1)Nc1ccc(S(=O)(=O)N2CCCC2)cc1	–	> 50 µM (inactive)
COCCNC(=O)/C(C#N)=C/c1ccc(-c2ccc(S(=O)(=O)N3CCOCC3)cc2)o1	–	> 50 µM (inactive)
COC(=O)Cn1c(=O)c2c(nc3n2CCCN3CCc2ccccc2)n(C)c1=O	–	> 50 µM (inactive)
